From the supplement of paper PMC11061612

Legend:
[1] = tested on: BxPC-3 (Pancreatic Carcinoma); assay: Bliss excess, mean over the matrix (fraction); higher = more synergy
How it was run: (§1)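 Cell lines grown in DMEM/F12 or RPMI with 10% FBS were plated in 1536-well plates and held 24 hours at 37°C, 5% CO2 before 72 hours of exposure to two-drug dose matrices, with DMSO typically at 0.2%. CellTiter-Glo 2.0 luminescence gave viability, which was converted to inhibition. Vehicle wells were set to 0 and blank wells to 1. Combination Emax is the second-highest inhibition in the matrix, and Bliss excess is the observed combination effect minus the expected EA + EB − EA·EB, where EA and EB are the single-agent effects.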

[2] = tested on: COR-L88 (Small Cell Lung Carcinoma); assay: as above
How it was run: as §1

KALS-1 (Glioblastoma) [3] = assay: as above
How it was run: as §1

[4] = tested on: NAMALWA (Burkitt's Lymphoma); assay: as above
How it was run: as §1

[5] = tested on: SK-CO-1 (Colorectal Carcinoma); assay: as above
How it was run: as §1

[6] = tested on: SNU-423 (Hepatocellular Carcinoma); assay: as above
How it was run: as §1

[7] = tested on: C-33-A (Cervical Carcinoma); assay: combination Emax (second highest fraction inhibited in the dose matrix, 72 h); higher = more inhibition; extreme values may be limits of the assay
How it was run: as §1

[8] = tested on: COR-L88 (Small Cell Lung Carcinoma); assay: as above
How it was run: as §1

[9] = tested on: CPC-N (Small Cell Lung Carcinoma); assay: as above
How it was run: as §1

[10] = tested on: HPAF-II (Pancreatic Carcinoma); assay: as above
How it was run: as §1

IST-MEL1 (Melanoma) = assay: as above
How it was run: as §1

KALS-1 (Glioblastoma) [11] = assay: as above
How it was run: as §1

[12] = tested on: LS-1034 (Colorectal Carcinoma); assay: as above
How it was run: as §1

[13] = tested on: MS-1 (Small Cell Lung Carcinoma); assay: as above
How it was run: as §1

[14] = tested on: NAMALWA (Burkitt's Lymphoma); assay: as above
How it was run: as §1

[15] = tested on: SCC-4 (Oral Cavity Carcinoma); assay: as above
How it was run: as §1

SK-N-SH (Neuroblastoma) = assay: as above
How it was run: as §1

[16] = tested on: SKG-IIIa (Cervical Carcinoma); assay: as above
How it was run: as §1

[17] = tested on: SNU-423 (Hepatocellular Carcinoma); assay: as above
How it was run: as §1

[18] = tested on: ZR-75-30 (Breast Carcinoma); assay: as above
How it was run: as §1
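Throughout, for Bliss excess, mean over the matrix: after 72 h of two-drug dosing.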

Compound | Bliss excess [1] | Bliss excess [2] | Bliss excess (KALS-1 (Glioblastoma) [3]) | Bliss excess [4] | Bliss excess [5] | Bliss excess [6] | combination Emax [7] | combination Emax [8] | combination Emax [9] | combination Emax [10] | combination Emax (IST-MEL1 (Melanoma)) | combination Emax (KALS-1 (Glioblastoma) [11]) | combination Emax [12] | combination Emax [13] | combination Emax [14] | combination Emax [15] | combination Emax (SK-N-SH (Neuroblastoma)) | combination Emax [16] | combination Emax [17] | combination Emax [18]
CN(CCO)CC[C@H](CSc1ccccc1)Nc1ccc(S(=O)(=O)NC(=O)c2ccc(N3CCC([C@@H](O)c4ccccc4-c4ccc(Cl)cc4)CC3)cc2)cc1S(=O)(=O)C(F)(F)F [AZD4320] + CC(=O)O[C@H]1C(=O)[C@@]2(C)[C@H]([C@H](OC(=O)c3ccccc3)[C@]3(O)C[C@H](OC(=O)[C@H](O)[C@@H](NC(=O)c4ccccc4)c4ccccc4)C(C)=C1C3(C)C)[C@]1(OC(C)=O)CO[C@@H]1C[C@@H]2O [Paclitaxel] (first compound max 1 µM, 7x7, partner max 3 µM) | 0.157 | 0.25 | 0.0468 | -0.01 | -0.0002 | 0.0819 | 0.989 | 0.997 | 1 | 0.955 | 0.977 | 0.984 | 0.82 | 0.971 | 1 | 0.971 | 0.989 | 0.905 | 0.959 | 0.326
N#Cc1cnc(Nc2cc(NC[C@H]3CNCCO3)c(C(F)(F)F)cn2)cn1 [SRA737] + O=c1[nH]cc(F)c(=O)[nH]1 [5-Fluorouracil] (first compound max 10 µM, 7x7, partner max 20 µM) | -0.0019 | -0.0088 | 0.0085 | 0.0157 | 0.0188 | 0.0005 | 0.478 | 0.435 | 0.861 | 0.436 | 0.528 | 0.792 | 0.77 | 0.584 | 0.967 | 0.628 | 0.57 | 0.34 | 0.477 | 0.169
Cc1c2c(nn1C)CSCc1cc(n(C)n1)CSc1cc(c3ccccc3c1)OCCCc1c(C(=O)O)n(C)c3c-2c(Cl)ccc13 [AZD5991] + CC(=O)O[C@H]1C(=O)[C@@]2(C)[C@H]([C@H](OC(=O)c3ccccc3)[C@]3(O)C[C@H](OC(=O)[C@H](O)[C@@H](NC(=O)c4ccccc4)c4ccccc4)C(C)=C1C3(C)C)[C@]1(OC(C)=O)CO[C@@H]1C[C@@H]2O [Paclitaxel] (first compound max 1 µM, 7x7, partner max 3 µM) | 0.0075 | 0.0486 | 0.0314 | 0.0041 | -0.052 | -0.0344 | 0.912 | 0.515 | 0.773 | 0.53 | 0.587 | 0.951 | 0.587 | 0.867 | 1 | 0.868 | 0.926 | 0.487 | 0.672 | 0.441
O=C(c1cc(Cc2n[nH]c(=O)c3ccccc23)ccc1F)N1CCN(C(=O)C2CC2)CC1 [Olaparib] + COc1nnc2ccc(N3CCC(c4ccc(OCCN5CCN(C)C(=O)[C@H]5C)cc4)CC3)nn12 [AZD5153] (first compound max 10 µM, 7x7, partner max 1 µM) | -0.106 | -0.0582 | -0.0141 | -0.0519 | -0.0441 | -0.0546 | 0.484 | 0.214 | 0.369 | 0.334 | 0.252 | 0.548 | 0.453 | 0.757 | 0.751 | 0.322 | 0.428 | 0.385 | 0.302 | 0.207
C[C@@H](Oc1cc(-c2cnn(C3CCNCC3)c2)cnc1N)c1c(Cl)ccc(F)c1Cl [Crizotinib] + CC1=C(C(=CC=C1)Cl)NC(=O)C2=CN=C(S2)NC3=CC(=NC(=N3)C)N4CCN(CC4)CCO [Dasatinib] (first compound max 10 µM, 7x7, partner max 2 µM) | 0.035 | -0.0039 | 0.0652 | 0.0586 | 0.0048 | -0.0038 | 0.582 | 0.435 | 0.584 | 0.431 | 0.76 | 0.925 | 0.835 | 0.686 | 0.934 | 0.913 | 0.859 | 0.734 | 0.934 | 0.036
N#Cc1cnc(Nc2cc(NC[C@H]3CNCCO3)c(C(F)(F)F)cn2)cn1 [SRA737] + CCc1c2c(nc3ccc(O)cc13)-c1cc3c(c(=O)n1C2)COC(=O)[C@]3(O)CC [SN-38] (first compound max 10 µM, 7x7, partner max 0.3 µM) | -0.0428 | -0.0179 | 0.0836 | -0.0123 | -0.0667 | 0.0367 | 0.943 | 0.645 | 0.872 | 0.547 | 0.828 | 0.928 | 0.873 | 0.799 | 0.994 | 0.893 | 0.892 | 0.592 | 0.648 | 0.124
C[C@@H](Nc1cc(F)cc(F)c1)c1cc(C(=O)N(C)C)cc2c(=O)cc(N3CCOCC3)oc12 [AZD8186] + C1CN(CCC1(C(=O)N[C@@H](CCO)C2=CC=C(C=C2)Cl)N)C3=NC=NC4=C3C=CN4 [AZD5363] (first compound max 10 µM, 7x7, partner max 10 µM) | -0.0731 | -0.0269 | -0.0397 | 0.0078 | 0.0309 | -0.0692 | 0.589 | 0.171 | 0.33 | 0.249 | 0.408 | 0.398 | 0.294 | 0.223 | 0.485 | 0.383 | 0.364 | 0.303 | 0.416 | 0.441
CS(=O)(=O)CCNCc1ccc(-c2ccc3ncnc(Nc4ccc(OCc5cccc(F)c5)c(Cl)c4)c3c2)o1 [Lapatinib] + Cn1cnc2c(F)c(Nc3ccc(Br)cc3Cl)c(C(=O)NOCCO)cc21 [Selumetinib] (first compound max 10 µM, 7x7, partner max 10 µM) | 0.0703 | -0.0301 | 0.0025 | -0.0003 | 0.0335 | -0.0083 | 0.55 | 0.215 | 0.251 | 0.877 | 0.543 | 0.575 | 0.727 | 0.489 | 0.419 | 0.557 | 0.398 | 0.393 | 0.508 | 0.807
C[C@@H]1COCCN1c1cc(C2([S@](C)(=N)=O)CC2)nc(-c2ccnc3[nH]ccc23)n1 [AZD6738] + Nc1ccn([C@@H]2O[C@H](CO)[C@@H](O)C2(F)F)c(=O)n1 [Gemcitabine] (first compound max 10 µM, 7x7, partner max 0.3 µM) | 0.008 | 0.105 | 0.0483 | 0.0357 | 0.0365 | 0.0969 | 0.969 | 0.756 | 0.949 | 0.577 | 0.768 | 0.896 | 0.902 | 0.961 | 1 | 0.849 | 0.932 | 0.623 | 0.724 | 0.269
Cc1c2c(nn1C)CSCc1cc(n(C)n1)CSc1cc(c3ccccc3c1)OCCCc1c(C(=O)O)n(C)c3c-2c(Cl)ccc13 [AZD5991] + CS(=O)(=O)CCNCc1ccc(-c2ccc3ncnc(Nc4ccc(OCc5cccc(F)c5)c(Cl)c4)c3c2)o1 [Lapatinib] (first compound max 1 µM, 7x7, partner max 10 µM) | -0.005 | -0.0283 | 0.0053 | -0.0204 | 0.0034 | -0.0272 | 0.514 | 0.305 | 0.327 | 0.213 | 0.295 | 0.332 | 0.39 | 0.535 | 0.977 | 0.81 | 0.442 | 0.456 | 0.289 | 0.974
C[C@@H](Oc1cc(-c2cnn(C3CCNCC3)c2)cnc1N)c1c(Cl)ccc(F)c1Cl [Crizotinib] + Cn1cnc2c(F)c(Nc3ccc(Br)cc3Cl)c(C(=O)NOCCO)cc21 [Selumetinib] (first compound max 10 µM, 7x7, partner max 10 µM) | -0.0323 | -0.0464 | -0.005 | -0.0259 | -0.043 | -0.0459 | 0.421 | 0.409 | 0.62 | 0.687 | 0.454 | 0.538 | 0.79 | 0.791 | 0.937 | 0.496 | 0.854 | 0.254 | 0.823 | 0.0695
CN(CCO)CC[C@H](CSc1ccccc1)Nc1ccc(S(=O)(=O)NC(=O)c2ccc(N3CCC([C@@H](O)c4ccccc4-c4ccc(Cl)cc4)CC3)cc2)cc1S(=O)(=O)C(F)(F)F [AZD4320] + CS(=O)(=O)CCNCc1ccc(-c2ccc3ncnc(Nc4ccc(OCc5cccc(F)c5)c(Cl)c4)c3c2)o1 [Lapatinib] (first compound max 1 µM, 7x7, partner max 10 µM) | -0.025 | 0.0911 | 0.0176 | -0.015 | 0.0785 | 0.017 | 0.476 | 0.986 | 0.977 | 0.984 | 0.364 | 0.422 | 0.939 | 0.971 | 0.373 | 0.942 | 0.97 | 0.479 | 0.91 | 0.957
